The supplement of paper PMC10307832

Key:
Test in all cases: relative viability (nuclei count vs DMSO), 5 days (fraction); higher = more cells survive
Linsitinib + Trametinib = compound: C[C@]1(O)C[C@@H](c2nc(-c3ccc4ccc(-c5ccccc5)nc4c3)c3c(N)nccn32)C1 [Linsitinib] + CC(=O)Nc1cccc(-n2c(=O)n(C3CC3)c(=O)c3c(Nc4ccc(I)cc4F)n(C)c(=O)c(C)c32)c1 [Trametinib] (partner 0.02 µM)
How it was run: (§1)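 After 5 days of treatment, lung cancer cells in 1536-well plates were fixed and stained in a single step (final 0.05% Triton X-100, 1% formaldehyde, 1 ug/ml Hoechst) and their nuclei counted on 4× images. Treatment had been applied by pin tool the day after seeding as one drug alone or as a fixed anchor-drug dose with five library-drug doses (not always all listed) in √10 steps. Relative viability is the nuclei count of treated wells divided by that of vehicle wells, and values are medians of duplicate plates.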

Linsitinib + Palbociclib = compound: C[C@]1(O)C[C@@H](c2nc(-c3ccc4ccc(-c5ccccc5)nc4c3)c3c(N)nccn32)C1 [Linsitinib] + CC(=O)c1c(C)c2cnc(Nc3ccc(N4CCNCC4)cn3)nc2n(C2CCCC2)c1=O [Palbociclib] (partner 0.5 µM)
How it was run: as §1

Linsitinib + Pemetrexed = compound: C[C@]1(O)C[C@@H](c2nc(-c3ccc4ccc(-c5ccccc5)nc4c3)c3c(N)nccn32)C1 [Linsitinib] + Nc1nc2[nH]cc(CCc3ccc(C(=O)N[C@@H](CCC(=O)O)C(=O)O)cc3)c2c(=O)[nH]1 [Pemetrexed] (partner 0.2 µM)
How it was run: as §1

Ispinesib + Luminespib = compound: Cc1ccc(C(=O)N(CCCN)[C@@H](c2nc3cc(Cl)ccc3c(=O)n2Cc2ccccc2)C(C)C)cc1 [Ispinesib] + CCNC(=O)c1noc(-c2cc(C(C)C)c(O)cc2O)c1-c1ccc(CN2CCOCC2)cc1 [Luminespib] (partner 0.01 µM)
How it was run: as §1

Row | Cell Line | relative viability (Linsitinib + Trametinib; first compound 0.01 µM) | relative viability (Linsitinib + Trametinib; first compound 0.03162 µM) | relative viability (Linsitinib + Trametinib; first compound 0.1 µM) | relative viability (Linsitinib + Trametinib; first compound 0.3162 µM) | relative viability (Linsitinib + Trametinib; first compound 1 µM) | relative viability (Linsitinib + Palbociclib; first compound 0.01 µM) | relative viability (Linsitinib + Palbociclib; first compound 0.03162 µM) | relative viability (Linsitinib + Palbociclib; first compound 0.1 µM) | relative viability (Linsitinib + Palbociclib; first compound 0.3162 µM) | relative viability (Linsitinib + Palbociclib; first compound 1 µM) | relative viability (Linsitinib + Pemetrexed; first compound 0.01 µM) | relative viability (Linsitinib + Pemetrexed; first compound 0.03162 µM) | relative viability (Linsitinib + Pemetrexed; first compound 0.1 µM) | relative viability (Linsitinib + Pemetrexed; first compound 0.3162 µM) | relative viability (Linsitinib + Pemetrexed; first compound 1 µM) | relative viability (Ispinesib + Luminespib; first compound 0.001 µM) | relative viability (Ispinesib + Luminespib; first compound 0.003162 µM) | relative viability (Ispinesib + Luminespib; first compound 0.01 µM) | relative viability (Ispinesib + Luminespib; first compound 0.03162 µM) | relative viability (Ispinesib + Luminespib; first compound 0.1 µM)
1 | BEN | 1.12 | 1.02 | 1.03 | 0.869 | 1.11 | 0.487 | 0.422 | 0.45 | 0.361 | 0.468 | 0.599 | 0.723 | 0.704 | 0.562 | 0.63 | 0.617 | 0.576 | 0.237 | 0.247 | 0.234
2 | LXF-289 | 0.641 | 0.535 | 0.674 | 0.519 | 0.665 | 0.565 | 0.62 | 0.607 | 0.493 | 0.614 | 0.879 | 0.88 | 0.927 | 0.777 | 0.861 | 0.622 | 0.794 | 0.743 | 0.556 | 0.617
3 | NCI-H358 | 0.15 | 0.148 | 0.13 | 0.118 | 0.0976 | 0.144 | 0.14 | 0.121 | 0.113 | 0.107 | 0.187 | 0.168 | 0.183 | 0.141 | 0.162 | 0.424 | 0.435 | 0.549 | 0.405 | 0.259
4 | NCI-H1993 | 0.46 | 0.494 | 0.398 | 0.476 | 0.504 | 0.646 | 0.668 | 0.484 | 0.686 | 0.456 | 0.59 | 0.621 | 0.565 | 0.449 | 0.404 | 0.801 | 0.45 | 1.01 | 0.821 | 0.634
5 | LOU-NH91 | 0.766 | 0.727 | 0.779 | 0.56 | 0.715 | 0.513 | 0.539 | 0.484 | 0.529 | 0.549 | 0.405 | 0.345 | 0.394 | 0.357 | 0.392 | 0.332 | 0.311 | 0.394 | 0.25 | 0.297
6 | NCI-H1975 | 0.396 | 0.336 | 0.331 | 0.308 | 0.272 | 0.571 | 0.588 | 0.517 | 0.429 | 0.39 | 0.287 | 0.239 | 0.293 | 0.287 | 0.289 | 0.231 | 0.217 | 0.21 | 0.351 | 0.198
7 | PC-3 [JPC-3] | 0.691 | 0.766 | 0.668 | 0.591 | 0.545 | 0.548 | 0.544 | 0.558 | 0.471 | 0.493 | 1.13 | 1.04 | 1.2 | 0.891 | 0.665 | 0.716 | 0.853 | 0.75 | 0.748 | 0.548
8 | NCI-H2126 | 0.568 | 0.552 | 0.533 | 0.509 | 0.473 | 0.345 | 0.365 | 0.347 | 0.352 | 0.334 | 0.707 | 0.67 | 0.779 | 0.511 | 0.598 | 0.927 | 1.02 | 1.03 | 0.844 | 0.428
9 | LU99A | 0.524 | 0.602 | 0.528 | – | 0.493 | 0.392 | 0.432 | 0.434 | – | 0.36 | 0.161 | 0.144 | 0.193 | – | 0.198 | 0.242 | 0.333 | 0.247 | 0.199 | 0.218
10 | NCI-H23 | 0.49 | 0.371 | 0.337 | 0.244 | 0.256 | 0.519 | 0.415 | 0.415 | 0.326 | 0.313 | 0.78 | 0.474 | 0.786 | 0.394 | 0.419 | 0.205 | 0.202 | 0.199 | 0.195 | 0.197
11 | PC-14 | 0.684 | 0.681 | 0.618 | 0.699 | 0.575 | 0.513 | 0.46 | 0.521 | 0.429 | 0.507 | 0.137 | 0.0865 | 0.16 | 0.121 | 0.148 | 0.168 | 0.13 | 0.131 | 0.131 | 0.125
12 | HCC-44 | 0.94 | 1.04 | 1.01 | 0.716 | 0.923 | 0.962 | 0.928 | 0.879 | 0.785 | 0.825 | 0.624 | 0.511 | 0.618 | 0.555 | 0.6 | 1.25 | 1.07 | 1.02 | 1.1 | 0.555
13 | A-427 | 0.779 | 0.69 | 0.707 | – | 0.626 | 0.516 | 0.568 | 0.535 | – | 0.494 | 0.951 | 1.03 | 0.986 | – | 0.866 | 1 | 1.11 | 1.33 | 0.352 | 0.389
14 | RERF-LC-KJ | 0.903 | 0.829 | 0.87 | 0.731 | 0.771 | 0.909 | 0.795 | 1.05 | 0.464 | 1.1 | 0.414 | 0.461 | 0.48 | 0.349 | 0.491 | 1.49 | 1.2 | 0.958 | 0.259 | 0.442
15 | NCI-H647 | 0.478 | 0.509 | 0.436 | 0.338 | 0.351 | 0.377 | 0.459 | 0.32 | 0.171 | 0.322 | 0.228 | 0.115 | 0.185 | 0.172 | 0.197 | 0.172 | 0.28 | 0.233 | 0.229 | 0.151
16 | NCI-H1734 | 0.642 | 0.685 | 0.61 | 0.468 | 0.605 | 0.338 | 0.394 | 0.334 | 0.313 | 0.31 | 0.413 | 0.324 | 0.404 | 0.417 | 0.408 | 0.179 | 0.0914 | 0.177 | 0.192 | 0.157
